“Also recorded” adds a separate entry of the source.
How the values were obtained:
ABCG2 = target: T1, ABCG2 (Homo sapiens, UniProt Q9UNQ0); experiment: Type of inhibition: mitoxantrone efflux by ABCG2 at varied substrate and inhibitor concentrations (FIG. 2); format: cell-based; parameters: expressed in transfected cells; host or cells: HEK-293 transfected with pcDNA3.1-ABCG2; details: for type of inhibition of ABCG2: mitoxantrone 0 to 20 μM, inhibitor 0 to 20 μM
T1 sequence (Q9UNQ0 1-655): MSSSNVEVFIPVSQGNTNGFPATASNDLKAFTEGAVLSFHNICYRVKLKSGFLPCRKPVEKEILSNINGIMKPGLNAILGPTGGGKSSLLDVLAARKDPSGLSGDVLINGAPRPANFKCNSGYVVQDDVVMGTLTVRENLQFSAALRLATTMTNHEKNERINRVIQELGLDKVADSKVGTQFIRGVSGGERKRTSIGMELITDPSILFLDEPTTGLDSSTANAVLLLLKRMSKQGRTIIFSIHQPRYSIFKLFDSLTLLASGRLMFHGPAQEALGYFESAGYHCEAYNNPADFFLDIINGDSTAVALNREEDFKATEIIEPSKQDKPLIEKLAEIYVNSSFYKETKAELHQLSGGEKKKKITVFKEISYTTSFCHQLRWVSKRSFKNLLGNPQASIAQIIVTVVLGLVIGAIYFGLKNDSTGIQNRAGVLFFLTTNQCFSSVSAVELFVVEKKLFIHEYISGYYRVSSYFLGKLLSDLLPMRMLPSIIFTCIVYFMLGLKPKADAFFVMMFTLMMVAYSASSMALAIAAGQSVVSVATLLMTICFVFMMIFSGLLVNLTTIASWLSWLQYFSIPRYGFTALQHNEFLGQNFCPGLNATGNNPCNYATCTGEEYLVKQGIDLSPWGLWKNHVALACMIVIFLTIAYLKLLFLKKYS
Description: The efflux of mitoxantrone by ABCG2 was measured at substrate concentrations ranging from 0 to 20 μM (panels A-C) in the presence or absence of fixed concentrations of compound (IA.2) in a range from 0 to 20 μM (panels D-E). In FIG. 2, the results obtained by varying the […] concentration are presented as a representation, which is either direct in panel A or of Lineweaver-Burke form in panel B or of Eadie-Hofstee form in panel C. The results obtained by varying the […] concentration are presented in linear (panel D) or logarithmic (panel E) x-axis scale. The curves were adjusted by means of the SigmaPlot software.
This is confirmed by the Lineweaver-Burke and Eadie-Hofstee representations presented, respectively, in FIG. 2B and FIG. 2C. The representations of these two graphs are characteristic of this type of inhibition. The inhibition constant K of compound (IA.2) is estimated as about 1 μM from the adjustment of the points of FIG. 2D or FIG. 2E.

[1] = test system: HEK-293 cells expressing ABCG2; experiment: Chemosensitization to mitoxantrone, cell growth test (MTT); format: cell-based, human; details: 5 μM compound, 72 hours, compared with cells not expressing ABCG2
Description: The cells are seeded (10 000 cells/well) in 96-well plates and incubated for 24 hours at 37° C. under 5% CO2. Varied concentrations of mitoxantrone (from 0 to 20 μM in a constant final volume of 100 μL) are then added with an equal volume of each of the test compounds. The cells are then left to divide for 72 hours. The cytotoxicity is evaluated colorimetrically with 3-(4,5-dimethylthiazol-2-yl)-2,5-diphenyltetrazolium bromide (MTT).
Increasing concentrations of mitoxantrone (MTX) are applied to HEK-293 cells expressing or not expressing ABCG2 and subjected or not subjected to a treatment with 5 μM of compound (IA.2), and whose residual vitality is evaluated after 72 hours of treatment by an MIT test. The results are illustrated in FIG. 3, in which the cells expressing ABCG2 are represented by circles, and those not expressing it by squares; those that are treated with 5 μM of (IA.2), i.e. five times its IC50, appear as empty symbols, whereas those that are not treated with (IA.2) appear as solid symbols. […] Compound (IA.2) thus appears to be a very efficient chemosensitizer.
Increasing concentrations of mitoxantrone (MTX) are applied to HEK-293 cells expressing or not expressing ABCG2 and subjected or not subjected to a treatment with 5 μM of compound (IA.1), and whose residual vitality is evaluated after 72 hours of treatment by an MTT test. The results are illustrated in FIG. 5, in which the cells expressing ABCG2 are represented by circles, and those not expressing it by squares; those that are treated with 5 μM of (IA.1), i.e. 2.5 times its IC50, appear as empty symbols, whereas those that are not treated with (IA.1) appear as solid symbols. […]
Increasing concentrations of mitoxantrone (MTX) are applied to HEK-293 cells expressing or not expressing ABCG2 and subjected or not subjected to a treatment with 5 μM of compound (IB.1), and whose residual vitality is evaluated after 72 hours of treatment by an MTT test. […]

Row | Compound | Ki (ABCG2; ABCG2, mitoxantrone efflux, from adjustment of FIG. 2D or 2E, read-out: inhibition constant K) [µM] | type of inhibition of ABCG2 (ABCG2) | chemosensitization: restoration of mitoxantrone sensitivity [1]
1 | CC(C)(C)OC(=O)NN(C(=O)N[C@@H](CCCCNC(=O)OCc1ccccc1)C(=O)OC(C)(C)C)c1cccc(C(=O)OCc2ccccc2)c1 [IA.2, tert-Butyl ester of (2S)-6-(benzyloxycarbonylamino)-2-[1-(3′-(benzyloxycarbonyl)phenyl)-2-(tert-butoxycarbonyl)hydrazino-carbonylamino]hexanoic acid] | ~1 | noncompetitive inhibitor | chemosensitization; also recorded: restores mitoxantrone sensitivity equal to that observed in the control cells
2 | CC(C)(C)OC(=O)N[C@H](CNN(CCCCCCNC(=O)OCc1ccccc1)C(=O)OC(C)(C)C)CC(=O)OCc1ccccc1 [IB.1, Benzyl ester of (3S)-4-[2-(6-benzyloxycarbonylaminohexyl)-2-tert-butoxycarbonylhydrazino]-3-tert-butoxycarbonylaminobutyric acid] |  |  | chemosensitization; also recorded: virtually full restoration of mitoxantrone sensitivity
3 | CC(C)(C)OC(=O)N[C@H](CNN(CCCCCCNC(=O)OCc1ccccc1)C(=O)OCc1ccccc1)CC(=O)OCc1ccccc1 [IB.11, Benzyl ester of (3S)-4-[2-benzyloxycarbonyl-2-(6-benzyloxycarbonylaminohexyl)hydrazino]-3-tert-butoxycarbonyl-aminobutyric acid] |  | noncompetitive | 
4 | CC(C)(C)OC(=O)NN(C(=O)N[C@@H](CCCCNC(=O)OCc1ccccc1)C(=O)OC(C)(C)C)c1ccccc1C(=O)OCc1ccccc1 [IA.1, tert-Butyl ester of (2S)-6-(benzyloxycarbonylamino)-2-[1-(2′-(benzyloxycarbonyl)phenyl)-2-(tert-butoxycarbonyl)hydrazino-carbonylamino]hexanoic acid] |  |  | chemosensitization; also recorded: restores virtually full mitoxantrone sensitivity

From US20120010161A1, “NOVEL AZAPEPTIDE OR AZAPEPTIDOMIMETIC COMPOUNDS INHIBITING BCRP AND/OR P-GP” (CENTRE NATIONAL DE LA RECHERCHE SCIENTIFIQUE, priority 2009, published 2012)
